Results on two molecules are retold here after paper PMC9186373, “Design, synthesis, and biological evaluation of novel carbazole derivatives as potent DNMT1 inhibitors with reasonable PK properties” (Journal of Enzyme Inhibition and Medicinal Chemistry, 2022).

Where two headings read alike, the source gives them in different places.

For series [1], the system named is A549 (human lung cancer cells). The series is described as follows: MTT assay, A549. It counts as cell-based. The procedure: The human lung cancer cells (A549) and human colon cancer cells (HCT116) were cultured in an RPMI-1640 medium containing 10% FBS, 100 U/mL streptomycin, and 100 U/mL penicillin at 37 °C in a humidified atmosphere with 5% CO2. All compounds were dissolved in DMSO and stock solutions were stored at −20 °C. Reagents were freshly diluted to the marked concentrations with a culture medium before use. DMSO concentration in experimental conditions never exceeded 0.1% (v/v). All cell lines were provided by the cell laboratory, School of pharmaceutical sciences, Guangzhou Medical University.
Cell viability was detected using an MTT assay kit. Cells were seeded into 96-well plates at a density of ∼1.0 × 10^4/well. 24 h later, sextuplicate wells were treated with media and new compounds at a fixed concentration (50 µM). After 24, 48, and 72 h, the drug-containing medium was replaced by a 100 µL fresh medium with 5 mg/mL MTT solution. After 4 h of incubation, the medium with MTT was removed, and 100 µL of DMSO was added to each well. The plates were gently agitated until the purple formazan crystals were dissolved, and the OD490 was determined using a […] (Olympus BX53, Japan). The data were calculated and plotted as the percent viability compared to the control.
On the technique in general: Tetrazolium assays rely on reduction of a dye to a coloured formazan, in cell work by metabolically active cells.

The subject of a further series is EZH2. Nature of the series: Methylation inhibition assay (AlphaLisa), EZH2. The settings on record: 50 µM; for inhibitory activity against EZH2: Figure 3; for Relative selectivity index of DNMT1 vs EZH2: 1 - selected enzyme inhibition/DNMT1 inhibition. It counts as biochemical. The procedure: (§1) All the compounds were first screened using an ELISA EpiQuik DNA methyltransferase (DNMT) activity/inhibitor assay kit (Epigentek). To measure the effects of the compounds on human DNMT1 activity, 200 nM purified DNMT1 was incubated with 50 µM and 100 µM of the different compounds and S-adenosylmethionine in the DNMT assay buffer in the assay plate at 37 °C for 2 h[36]. Next, every sample was incubated with the capture and detection antibody, followed by incubation with developer solution for 10 min at room temperature. The absorbance was measured at 450 nm using a POLARstar Omega microplate reader (BMG). S-Adenosylhomocysteine (AdoHcy) was used as a positive control. Methylation inhibition assays for EZH2, LSD, and G9a were performed in modified Tris, pH 9.0, buffer using AlphaLisa technology. An amount of 10 µL of the reaction system contained a corresponding concentration of SAM (Sigma) (EZH2 50 µM, LSD 50 µM, and G9a 50 µM), which was the Km value in each enzymatic reaction, plus 100 nM biotinylated peptide H3 (1–21) (synthesis by GLChina) and the relevant enzyme concentration (0.03 nM EZH2, 0.03 nM LSD, and 0.03 nM G9a). The proteins were preincubated with various compound concentrations for 15 min at room temperature before the substrate and SAM were added. After 60 min of incubation at room temperature, acceptor and donor AlphaLisa beads were added according to the manufacturer’s recommendations. The signals were read in Alpha mode with an EnSpire multimode plate reader (PerkinElmer). IC50 values were derived by fitting the data for the inhibition percentage to a dose-response curve by non-linear regression in GraphPad Prism 5.0[20].
(§2) In addition to DNMT1, there are many other methyltransferases that can bind with S-adenosyl-L-methionine (SAM) to facilitate transmethylation reactions[24]^,[25]. To investigate the selectivity of these potent compounds for DNMT1, we then evaluated the inhibitory activities against DNMT1 and other important methyltransferases at the concentration of 50 µM, including DNMT3A/3L, DNMT3B/3L, and other SAM-dependent enzymes[1]^,[2]^,[26], such as EZH2[27], LSD1[28], G9a (histone H3 lysine 9 methyltransferase)[29].
(§3) 493 Relative selectivity index
(§4) 494 Relative selectivity index of DNMT1 is calculated by formula: DNMT1-selectivity
(§5) 495 index =1 - selected enzyme inhibition/DNMT1 inhibition. The closer
(§6) 496 that this value is to 1 or even more than 1, the better DNMT1-selectivity the of the
(§7) 498 Table S1. Relative selectivity index of DNMT1
Cpd. […]

The test system of the next series is LSD1. Nature of the series: Methylation inhibition assay (AlphaLisa), LSD1. The settings on record: 1 - selected enzyme inhibition/DNMT1 inhibition; 50 µM. It counts as biochemical. As to the method:
as §1, §2, §3, §4, §5, §6, §7
Cpd. […]
For orientation: Alpha assays give light when donor and acceptor beads are brought close together.

Another series in a line: PK study in SD rats. It is filed as in vivo. Conditions: rat, plasma, SD male rats; for AUC(0-t) / Tmax / half-life: mean ± SD (n = 3); for bioavailability: p.o. 10 mg/kg vs i.v. 2 mg/kg, F = (AUC p.o. × Dose i.v.)/(AUC i.v. × Dose p.o.) × 100%. As to the method: In vivo pharmacokinetic properties of WK-22, WK-23, WK-27, and DC_517 were performed by Medicilon Company, Shanghai, China. SPF-grade SD male rats (8 groups, n = 3 rats per group) with a body weight of 230–260 g were purchased from Shanghai SIPPR-BK LAB Animal Ltd., Shanghai, China, and used for the pharmacokinetic analysis of the tested compounds. All animals were deprived of food overnight after the cannulation surgery. Subsequently, the tested compounds WK-23 and DC_517 were dissolved/suspended in 5% DMSO, 10% Solutol, and 85% water, and the tested compounds WK-22 and WK-27 were dissolved/suspended in 5% DMSO, 40% PEG400, and 55% saline for intravenous administration (i.v.) and oral administration (p.o.), respectively. A final dosage of 2.0 and 10.0 mg/kg rat of the formulated compounds was administered for i.v. and p.o. purposes, respectively, and the blood samples were taken at various time points during a 24 h period. At different time points, blood samples were collected from the femoral vein. The plasma samples were obtained after centrifugation (6800 g, 6 min, 2–8 °C) and stored at −80 °C until the assay. The AUC (area under concentration-time curve) was calculated through the trapezoidal rule with extrapolation to time infinity. The concentration of the compounds in the blood was analysed by LC-MS/MS (Shimadzu liquid chromatographic system and SCIEX Triple Quad 5500+ mass spectrometer, Applied Biosystems, Ontario, Canada). The Tmax, T1/2, and Cmax value was obtained through visual inspection of the plasma concentration-time curve. The Vss value was generated from DAS 3.2.8 software. The F value of WK-23 was calculated with the formula: F = (AUC p.o. × Dose i.v.)/(AUC i.v. × Dose p.o.) × 100%.

The next series deals with DNMT3B/3L. Nature of the series: Methyltransferase enzymatic selectivity profiling, DNMT3B/3L. It is filed as biochemical. Conditions: 1 - selected enzyme inhibition/DNMT1 inhibition; 50 µM. The procedure: as §2
(§8) Here, the selectivity of non-nucleoside DNMT1 inhibitors is somewhat predictable because other methyltransferases mentioned above catalyse different substrates and share very low homology with DNMT1, even in their catalytic domain[30–32]. Subsequently, the screened compounds were evaluated in a dose-dependent assay against HCT116 (human colon cancer cell line) and A549 (human lung carcinoma cell line).
as §3, §4, §5, §6, §7
Cpd. […]

A further series relates to DNMT3A/3L. The series is described as follows: Methyltransferase enzymatic selectivity profiling, DNMT3A/3L. The settings on record: 1 - selected enzyme inhibition/DNMT1 inhibition; 50 µM. It is filed as biochemical. As to the method:
as §2, §8, §3, §4, §5, §6, §7
Cpd. […]

Setting [2] is: 24 h, read-out: Inh % at 50 μM, A549, 24 h.
Where [3] appears, read: 48 h, read-out: Inh % at 50 μM, A549, 48 h.
Where [4] appears, read: 72 h, read-out: Inh % at 50 μM, A549, 72 h.

As for `CC(C)NCC(O)COC(Cn1c2ccc(F)cc2c2cc(F)ccc21)Cn1c2ccc(F)cc2c2cc(F)ccc21` (stereo not shown) [WK-22, 1-((1,3-Bis(3,6-difluoro-9H-carbazol-9-yl)propan-2-yl)oxy)-3-(isopropylamino)propan-2-ol], the figures for the inhibition at 50 µM in series [1] (setting [2]), in series [1] (setting [3]) and in series [1] (setting [4]) were 64.3%, 98% and 95.7%, respectively. Besides, the “inhibitory activity against EZH2” value in the series with EZH2 is on record as “nearly no inhibitory activities”. For the same molecule, in the series with EZH2, the “Relative selectivity index of DNMT1 vs EZH2” value turned out to be 0.96. Moreover, the “Relative selectivity index of DNMT1 vs LSD1” value in the series with LSD1 came out at 0.02. Also, the AUC(0-t) (in general, the area under the concentration-time curve up to a stated or last time point) stood at 867 ± 15.9 ng·h/mL in “PK study in SD rats” (iv, i.v. (2 mg/kg)) and 1170 ± 197 ng·h/mL in the series “PK study in SD rats” (po, p.o. (10 mg/kg)). Also, the Tmax (commonly the time at which the peak concentration occurs) in the series “PK study in SD rats” (iv, i.v. (2 mg/kg)) is 0.1 h; in the series “PK study in SD rats” (po, p.o. (10 mg/kg)), 7.3 ± 1.2 h. Moreover, the half-life (as a rule, how long it takes for the measured level to halve) in “PK study in SD rats” (iv, i.v. (2 mg/kg)) is 12.2 ± 0.8 h; in the series “PK study in SD rats” (po, p.o. (10 mg/kg)), 8.8 ± 1.3 h. For the same molecule, the bioavailability – broadly, dose-corrected exposure relative to a reference, in per cent – was found to be 27% in “PK study in SD rats” (oral) and 27 ± 4.6% in the series “PK study in SD rats” (po). In addition, the “Relative selectivity index of DNMT1 vs DNMT 3B/3L” value with DNMT3B/3L stood at 0.03. The “Relative selectivity index of DNMT1 vs DNMT 3A/3L” value with DNMT3A/3L is listed as 0.04.
On to `CC(C)NCC(O)COC(Cn1c2ccccc2c2cc(F)ccc21)Cn1c2ccccc2c2cc(F)ccc21` (stereo not shown) [WK-23, 1-((1,3-bis(3-fluoro-9H-carbazol-9-yl)propan-2-yl)oxy)-3-(isopropylamino)propan-2-ol], for which the inhibition at 50 µM in series [1] (setting [2]) came to 75.9%. In addition, the inhibition at 50 µM in series [1] (setting [3]) is 58.1%. Further, the inhibition at 50 µM in series [1] (setting [4]) turned out to be 93.6%. For the same molecule, in the series with EZH2, the “inhibitory activity against EZH2” value is “nearly no inhibitory activities” and the “Relative selectivity index of DNMT1 vs EZH2” value is listed as 0.85. Besides, the “Relative selectivity index of DNMT1 vs LSD1” value with LSD1 amounted to 0.2. Besides, in “PK study in SD rats” (iv, i.v. (2 mg/kg)), the AUC(0-t) was determined as 1060 ± 121 ng·h/mL, the Tmax turned out to be 0.08 h and the half-life was 7.9 ± 1 h. This molecule had a bioavailability in the series “PK study in SD rats” (po) of 37.1 ± 1.7%. Further, in the series “PK study in SD rats” (po, p.o. (10 mg/kg)), the AUC(0-t) is 1970 ± 91.1 ng·h/mL, the time of peak concentration (Tmax) worked out at 6.7 ± 1.2 h and the half-life was 6.5 ± 0.3 h. The “Relative selectivity index of DNMT1 vs DNMT 3B/3L” value with DNMT3B/3L came to 0.02. Also, the “Relative selectivity index of DNMT1 vs DNMT 3A/3L” value in the series on DNMT3A/3L worked out at 0.06.
